# Results: ChEMBL document CHEMBL1777784, “New antiplasmodial indole alkaloids from Hunteria zeylanica” (Bioorg Med Chem Lett, 2011)
# Key:
# HL-60 = assay: Cytotoxicity against human HL60 cells; type: cell-based
# Plasmodium falciparum = assay: Antiplasmodial activity against Plasmodium falciparum 3D7 by Geimsa staining method; type: functional, organism-based
# [1] = Selectivity index, ratio of IC50 for Plasmodium falciparum 3D7 to IC50 for human HL60 cells; design: species or system HL-60
smiles,measurement,setting,value
C/C=C1/C[N@@+]2(C)CCc3c([nH]c4ccc(O)c([C@@H]5C[C@@]6(CC)CCCN7CCc8c(n5c5ccccc85)[C@H]76)c34)[C@H]2C[C@@H]1CCO (stereo in doubt; 4) [BISNICALATERINE B],IC50,HL-60,> 50 µM
same,IC50,Plasmodium falciparum,1130 nM
same,Ratio IC50,[1],>44
C/C=C1/C[N@@+]2(C)CCc3c([nH]c4ccc(O)c([C@@H]5C[C@@]6(CC)CCCN7CCc8c(n5c5ccccc85)[C@H]76)c34)[C@H]2C[C@@H]1CCO (stereo in doubt; 5) [BISNICALATERINE B],IC50,Plasmodium falciparum,50 nM
same,Ratio IC50,[1],>1000
C/C=C1/CN(C)[C@H]2Cc3c([nH]c4ccccc34)[C@H](n3c4c(c5ccccc53)C[C@H]3[C@@H](C(=O)OC)[C@H](C[C@H]4O)/C(=C\C)CN3C)C[C@H]1[C@@H]2C(=O)OC [BISNICALATERINE A],IC50,HL-60,16.2 µM
same,IC50,"Plasmodium falciparum; Plasmodium falciparum, 3D7",4360 nM
same,Ratio IC50,[1],3.7
C/C=C1/C[N@@+]2(C)CCc3c([nH]c4ccc(O)c(C5=C[C@@]6(CC)CCCN7CCc8c(n5c5ccccc85)[C@H]76)c34)[C@H]2C[C@@H]1CCO [BISNICALATERINE D],IC50,HL-60,> 50 µM
same,IC50,"Plasmodium falciparum; Plasmodium falciparum, 3D7",> 50000 nM
CCc1c[n+]2ccc3c4ccccc4[nH]c3c2cc1CCO [NICALATERINE A],IC50,HL-60,> 50 µM
same,IC50,"Plasmodium falciparum; Plasmodium falciparum, 3D7",110 nM
same,Ratio IC50,[1],>450
